We go through five molecules from patent publication EP1106702A1, “High-throughput screening of compounds using electrospray ionization mass spectrometry (ESI-MS)” (AGOURON PHARMACEUTICALS, INC., priority 1999, dated 2001).

Assay [1] concerns 6:7 duplex. Kind of assay: ESI-MS monitoring of non-covalent small molecule:oligonucleotide complexes with DNA duplex. The assay is classed as binding. The conditions noted are these: for ammonium acetate concentration tolerated with binding/complex stable: ammonium acetate varied from 10 mM to 250 mM; for relative binding affinity to 6:7 duplex: 10 mM ammonium acetate. How it is done:
Regarding buffer concentration, the concentrations of ammonium acetate were varied to determine the effects of ionic strength on ligand binding. […] Of the intercalators, proflavin tolerated over 100 mM ammonium acetate with minimal shifting in binding. However, ethidium bromide and methyl green had almost 70% reduction in binding to DNA at only 33 mM ammonium acetate. The reduction in binding of ethidium bromide and methyl green at high salt concentrations is evidence of the electrostatic nature of the first step in binding in the intercalation of these compounds. Proflavin, which is […] at the test pH, should be less affected by an increase in competing counterions.
The general protocol for preparing the samples utilized in the present invention is as follows. Complementary single-stranded oligonucleotides are desalted, preferably via ammonium acetate precipitation. This DNA desalting procedure involves the following steps. First, the oligonucleotide is dissolved in approximately 100 µL of water. Next, about 500 µL of 10 M ammonium acetate is added. The solution is mixed and allowed to rest for about 5 minutes. From about 600 to about […] of cold ethanol (EtOH) is added and the solution is set in dry ice for about 25 minutes. The solution is then centrifuged for about 20 minutes. The supernatant is removed and saved and the preceding steps are repeated once. Subsequently, 1 ml of a 90:10 solution of EtOH and water are added and the solution is centrifuged for 5 minutes. This step is then repeated twice. The solution is then dried and rehydrated. Finally, OD readings are taken at 260 nanometers to ensure a 1:500 dilution.
(§1) The complementary oligonucleotide strands and corresponding oligonucleotide duplex are not critical to the invention. The duplex may comprise a DNA:DNA duplex, an RNA:RNA duplex or a DNA:RNA duplex. The DNA strands utilized herein are described in detail below. Once desalted, the complementary oligonucleotide strands are added in equimolar mixture in 50 mM ammonium acetate to make a […] duplex stock solution. The duplex stock solution is placed in a 60° C water bath for 10 minutes and then slowly cooled to room temperature. Test solutions are made by adding test compound (dissolved in methanol (MeOH)) to stock solution in a 2:1 water:isopropyl alcohol. Final concentrations of test compound and duplex are preferably 10 µM each. For example, 20 µL of the stock duplex solution is added to 80 µL of a 2:1 solution of water and IPA for a final volume of 100 µL and a final concentration of 10 µM duplex. The test compound is then added to the solution for a final concentration of 10 µM as well. One may subsequently dilute the test solution to test a range of test compound concentrations, from as low as 0.3 µM up to 10 µM.
Once the appropriate samples and solutions are prepared, one may proceed with the ESI-MS procedure. The general protocol for manual analysis is as follows. First, a 50 µL sample of test solution (comprised of about 30 picomoles of test compound) is drawn into a 100 µL syringe and infused into an LCQ Decca ion trap mass spectrometer using ESI-MS source. The sample is directly infused at a rate of about 1.5 µL/min over a period of approximately 2 minutes. The spectra is then analyzed for the presence of bound test ligand. If the test ligand does bind, the sample is re-run at lower concentrations, from about 0.3 µM up to 1.0 µM. In order to ensure statistical accuracy, data are preferably summed, saved, and analyzed over a large numbers of scans, preferably 30 to 50 scans, more preferably 40 scans.
The oligonucleotides utilized in the examples herein were known to interact with a particular target(s) of interest. They were provided according to our specifications from TriLink (La Jolla, CA). […] When the duplex solution was analyzed by ESI-MS, it was possible to see at least three charge stages of the duplex as well as some charge states of the two single strands. […]

Assay [2] deals with ss DNA. Nature of the assay: ESI-MS monitoring of ligand binding to the single strands in the duplex mixture. As to conditions: 10 µM duplex 6:7 mixture, increasing ligand concentration. The protocol:
as §1, with “For example, 20 µL of the stock duplex solution is added to 80 µL of a 2:1 solution of water and IPA for a final volume of 100 µL and a final concentration of 10 µM duplex. The test compound is then added to the solution for a final concentration of 10 µM as well. One may subsequently dilute the test solution to test a range of test compound concentrations, from as low as 0.3 µM up to 10 µM.” left out
Once the appropriate samples and solutions are prepared, one may proceed with the ESI-MS procedure. […] The spectra is then analyzed for the presence of bound test ligand. […] In order to ensure statistical accuracy, data are preferably summed, saved, and analyzed over a large numbers of scans, preferably 30 to 50 scans, more preferably 40 scans.
The oligonucleotides utilized in the examples herein were known to interact with a particular target(s) of interest. […] When the duplex solution was analyzed by ESI-MS, it was possible to see at least three charge stages of the duplex as well as some charge states of the two single strands. […]

Assay [3] deals with E.coli DNA helicase II (Escherichia coli, UniProt P03018). As to conditions: intercalation into double-stranded DNA substrate; cited from earlier work.
Sequence of E.coli DNA helicase II (P03018 whole entry): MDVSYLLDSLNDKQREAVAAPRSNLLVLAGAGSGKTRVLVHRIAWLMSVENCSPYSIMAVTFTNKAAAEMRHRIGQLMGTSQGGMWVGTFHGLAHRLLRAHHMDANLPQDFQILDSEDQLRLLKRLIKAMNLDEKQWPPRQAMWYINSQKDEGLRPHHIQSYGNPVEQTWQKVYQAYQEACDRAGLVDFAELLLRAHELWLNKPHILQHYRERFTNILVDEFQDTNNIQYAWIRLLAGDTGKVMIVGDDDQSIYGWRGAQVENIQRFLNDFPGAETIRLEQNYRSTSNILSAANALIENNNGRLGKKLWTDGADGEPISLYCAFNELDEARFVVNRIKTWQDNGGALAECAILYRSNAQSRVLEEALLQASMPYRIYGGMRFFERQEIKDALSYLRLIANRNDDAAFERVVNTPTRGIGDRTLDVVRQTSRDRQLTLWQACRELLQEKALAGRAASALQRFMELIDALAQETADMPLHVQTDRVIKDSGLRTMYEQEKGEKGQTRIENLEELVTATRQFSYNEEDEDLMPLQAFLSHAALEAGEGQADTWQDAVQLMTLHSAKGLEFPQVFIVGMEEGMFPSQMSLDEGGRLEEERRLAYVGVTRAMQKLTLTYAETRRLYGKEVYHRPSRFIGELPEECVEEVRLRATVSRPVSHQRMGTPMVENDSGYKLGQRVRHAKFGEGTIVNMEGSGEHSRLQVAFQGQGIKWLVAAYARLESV
Assay [4] concerns 6:7 duplex. Nature of the assay: ESI-MS monitoring of non-covalent small molecule:oligonucleotide complexes with DNA duplex. It is filed as binding. The conditions noted are these: 10 µM duplex and 10 µM proflavin; FT-ICR mass spectrometer.
The mark [5] stands for this setting: 33 mM ammonium acetate, 10 µM 6:7 duplex and 10 µM sample.
The mark [6] stands for this setting: 10 µM 6:7 duplex and 10 µM sample.

For the molecule `CN1CCN(c2ccc3[nH]c(-c4ccc5[nH]c(-c6ccc(O)cc6)nc5c4)nc3c2)CC1` [H33258, bis-benzamide], the “relative amounts of the 1:1 H33258:DNA complex compared with the 2:1 H33258:DNA complex” value in assay [1] (33 mM ammonium acetate) was “shifted”. The “change in binding (in words)” value in assay [1] (setting [5]) is recorded as “appreciable reduction in binding”. In addition, the “binding to single strand” value in assay [2] is listed as “ligand bound to ss DNA was observed in increasing quantities”.

As for `Cn1cc(NC(=O)c2cc(NC(=O)c3cc(NC=O)cn3C)cn2C)cc1C(=O)NCCC(=N)N` [distamycin A], the “ammonium acetate concentration tolerated with binding/complex stable” value in assay [1] (setting [6]) was “up to 100 mM”. The “observation of ligand:DNA complex” value in assay [1] (500 mM ammonium acetate in solution) is reported as “still observed (though at much reduced levels)”.

In the case of `CN(C)c1ccc(C(=C2C=CC(=[N+](C)C)C=C2)c2ccc([N+](C)(C)C)cc2)cc1.[Cl-].[Cl-]` [methyl green], the “relative binding affinity to 6:7 duplex” value in assay [1] is on record as “methyl green > ethidium bromide > proflavin”. Besides, the “reduction in binding to DNA” value in assay [1] (setting [5]) is ~70%.

As for `O=C1c2c(O)ccc(O)c2C(=O)c2c(NCCNCCO)ccc(NCCNCCO)c21` [mitoxantrone], the “effect on helicase II ATP hydrolysis and unwinding activity” value in assay [3] was “inhibition of ATP hydrolysis and unwinding activity”.

Turning to `Nc1ccc2cc3ccc(N)cc3nc2c1` [proflavin], the “binding between intercalator and duplex” value in assay [4] was “binding between intercalator and duplex was observed”. Moreover, the “ammonium acetate concentration tolerated with binding/complex stable” value in assay [1] (setting [6]) is recorded as “over 100 mM”. Further, the “relative binding affinity to 6:7 duplex” value in assay [1] was “methyl green > ethidium bromide > proflavin”.
